Results taken from ChEMBL document CHEMBL2412971, “Selective orexin receptor antagonists” (Bioorg Med Chem Lett, 2013).
Values belong to the molecule of their own block, whether it stands above or below them.

Legend:
[1] = biological target: T1, Orexin/Hypocretin receptor type 1 (Homo sapiens) (UniProt O43613); test: (§1) Binding affinity to orexin receptor 1 (unknown origin)
T1 sequence (whole entry): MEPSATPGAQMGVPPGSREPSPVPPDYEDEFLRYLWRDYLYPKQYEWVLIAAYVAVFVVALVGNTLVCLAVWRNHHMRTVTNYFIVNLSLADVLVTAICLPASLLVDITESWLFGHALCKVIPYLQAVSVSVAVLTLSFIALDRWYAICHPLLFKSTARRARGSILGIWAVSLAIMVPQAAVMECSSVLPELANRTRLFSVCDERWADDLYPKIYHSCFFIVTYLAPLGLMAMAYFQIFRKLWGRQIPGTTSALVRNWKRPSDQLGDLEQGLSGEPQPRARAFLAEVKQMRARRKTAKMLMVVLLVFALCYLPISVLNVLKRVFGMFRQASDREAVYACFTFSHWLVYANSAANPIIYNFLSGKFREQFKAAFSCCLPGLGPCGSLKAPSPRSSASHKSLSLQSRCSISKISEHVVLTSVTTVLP

[2] = biological target: T2, Orexin receptor type 2 (Homo sapiens) (UniProt O43614); test: (§2) Binding affinity to orexin receptor 2 (unknown origin)
T2 sequence (whole entry): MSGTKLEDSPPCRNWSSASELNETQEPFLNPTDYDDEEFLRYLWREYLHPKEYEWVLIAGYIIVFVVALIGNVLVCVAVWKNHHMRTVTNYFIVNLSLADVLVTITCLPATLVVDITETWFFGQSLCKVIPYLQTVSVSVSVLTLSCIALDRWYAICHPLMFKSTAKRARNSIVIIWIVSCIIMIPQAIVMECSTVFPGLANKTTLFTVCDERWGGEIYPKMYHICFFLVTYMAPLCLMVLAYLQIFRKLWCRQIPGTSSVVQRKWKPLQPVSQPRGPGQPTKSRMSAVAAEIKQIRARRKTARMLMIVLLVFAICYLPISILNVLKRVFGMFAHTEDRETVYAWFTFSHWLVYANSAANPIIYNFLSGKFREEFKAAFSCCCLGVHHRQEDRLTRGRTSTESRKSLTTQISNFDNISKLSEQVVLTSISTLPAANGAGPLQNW

[3] = biological target: T3, Orexin receptor type 2 (Homo sapiens, UniProt O43614); test: Antagonist activity at human orexin receptor 2 expressed in CHO cells assessed as inhibition of orexin-A-induced calcium flux by FLIPR assay; type: functional, cell-based
T3 sequence (O43614 whole entry): T2 sequence (whole entry)

[4] = biological target: T4, Orexin/Hypocretin receptor type 1 (Homo sapiens, UniProt O43613); test: Antagonist activity at human orexin receptor 1 expressed in CHO cells assessed as inhibition of orexin-A-induced calcium flux by FLIPR assay; type: functional, cell-based
T4 sequence (O43613 whole entry): T1 sequence (whole entry)

[5] = biological target: Kappa-type opioid receptor (Homo sapiens, UniProt P41145); test: Binding affinity to kappa opioid receptor (unknown origin)
[6] = biological target: T5, 5-hydroxytryptamine receptor 2C (Homo sapiens, UniProt P28335); test: Binding affinity to 5HT2C receptor (unknown origin)
T5 sequence (P28335 whole entry): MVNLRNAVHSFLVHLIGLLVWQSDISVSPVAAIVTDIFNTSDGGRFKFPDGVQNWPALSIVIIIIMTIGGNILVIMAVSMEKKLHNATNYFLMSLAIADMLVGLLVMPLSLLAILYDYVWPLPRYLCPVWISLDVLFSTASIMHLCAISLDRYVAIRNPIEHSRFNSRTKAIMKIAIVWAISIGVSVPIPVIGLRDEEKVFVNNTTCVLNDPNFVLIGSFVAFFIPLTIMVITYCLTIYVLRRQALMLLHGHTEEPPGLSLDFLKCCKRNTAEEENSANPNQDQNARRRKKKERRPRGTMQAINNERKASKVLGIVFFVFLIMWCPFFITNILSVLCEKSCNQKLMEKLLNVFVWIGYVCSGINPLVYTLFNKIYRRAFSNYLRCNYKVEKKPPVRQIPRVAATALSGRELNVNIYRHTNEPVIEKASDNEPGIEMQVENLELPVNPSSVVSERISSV

[7] = biological target: Adenosine receptor A2a (Homo sapiens, UniProt P29274); test: Binding affinity to adenosine A2A receptor (unknown origin)
[8] = biological target: T3, Orexin receptor type 2; test: as §2
[9] = biological target: T4, Orexin/Hypocretin receptor type 1; test: as §1
[10] = biological target: 5-hydroxytryptamine receptor 2B (Homo sapiens, UniProt P41595); test: Binding affinity to 5HT2B receptor (unknown origin)
[11] = biological target: D(1A) dopamine receptor (Homo sapiens, UniProt P21728); test: Binding affinity to dopamine D1 receptor (unknown origin)
D(1A) dopamine receptor, sequence (P21728 whole entry): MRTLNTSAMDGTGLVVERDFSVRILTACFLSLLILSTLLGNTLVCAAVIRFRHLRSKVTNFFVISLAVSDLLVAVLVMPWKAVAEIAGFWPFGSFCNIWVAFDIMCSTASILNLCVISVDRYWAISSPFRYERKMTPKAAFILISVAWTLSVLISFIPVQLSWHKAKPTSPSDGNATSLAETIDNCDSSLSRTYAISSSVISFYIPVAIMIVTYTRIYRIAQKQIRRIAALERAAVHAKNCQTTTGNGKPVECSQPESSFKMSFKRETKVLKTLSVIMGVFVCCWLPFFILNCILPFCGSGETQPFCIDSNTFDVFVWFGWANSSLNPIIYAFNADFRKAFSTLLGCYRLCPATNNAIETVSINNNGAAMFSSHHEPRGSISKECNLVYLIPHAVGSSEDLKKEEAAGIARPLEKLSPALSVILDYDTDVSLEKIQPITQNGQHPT

Kappa-type opioid receptor, sequence (P41145 whole entry): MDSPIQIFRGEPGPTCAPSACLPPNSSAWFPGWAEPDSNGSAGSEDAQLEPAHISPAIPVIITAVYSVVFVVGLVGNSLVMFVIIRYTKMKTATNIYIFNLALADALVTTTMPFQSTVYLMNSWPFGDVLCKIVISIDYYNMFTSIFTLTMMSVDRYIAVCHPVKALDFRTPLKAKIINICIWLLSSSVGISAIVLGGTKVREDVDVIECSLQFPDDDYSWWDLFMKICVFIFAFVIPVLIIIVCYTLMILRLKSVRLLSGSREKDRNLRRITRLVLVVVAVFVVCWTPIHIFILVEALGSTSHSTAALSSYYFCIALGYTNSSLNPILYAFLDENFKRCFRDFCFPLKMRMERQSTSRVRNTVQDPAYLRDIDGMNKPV
5-hydroxytryptamine receptor 2B, sequence (P41595 whole entry): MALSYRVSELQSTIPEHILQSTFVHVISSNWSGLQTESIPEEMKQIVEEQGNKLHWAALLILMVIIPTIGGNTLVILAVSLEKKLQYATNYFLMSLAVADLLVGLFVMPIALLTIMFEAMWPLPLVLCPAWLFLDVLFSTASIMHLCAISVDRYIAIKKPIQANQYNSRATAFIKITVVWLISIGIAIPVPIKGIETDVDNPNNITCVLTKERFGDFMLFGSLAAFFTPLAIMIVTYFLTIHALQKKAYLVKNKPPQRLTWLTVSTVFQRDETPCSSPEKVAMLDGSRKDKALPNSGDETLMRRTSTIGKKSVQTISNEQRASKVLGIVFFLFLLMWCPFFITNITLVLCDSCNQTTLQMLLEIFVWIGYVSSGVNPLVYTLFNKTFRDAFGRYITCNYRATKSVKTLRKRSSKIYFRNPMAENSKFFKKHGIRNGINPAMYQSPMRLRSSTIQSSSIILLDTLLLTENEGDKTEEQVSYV
Adenosine receptor A2a, sequence (P29274 whole entry): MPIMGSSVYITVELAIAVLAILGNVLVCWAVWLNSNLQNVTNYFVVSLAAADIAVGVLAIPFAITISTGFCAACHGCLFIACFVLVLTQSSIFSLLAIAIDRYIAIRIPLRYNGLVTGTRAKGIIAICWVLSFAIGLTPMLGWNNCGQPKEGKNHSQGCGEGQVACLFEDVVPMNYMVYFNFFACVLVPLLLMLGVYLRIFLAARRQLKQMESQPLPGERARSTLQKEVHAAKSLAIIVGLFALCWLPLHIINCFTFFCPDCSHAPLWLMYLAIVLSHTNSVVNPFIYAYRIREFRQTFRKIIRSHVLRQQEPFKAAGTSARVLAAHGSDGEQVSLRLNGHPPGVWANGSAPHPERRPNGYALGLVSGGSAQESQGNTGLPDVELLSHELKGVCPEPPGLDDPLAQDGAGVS

SMILES: CN(Cc1ccccc1)C(=O)Cn1nc(S(=O)(=O)Cc2ccccc2)c2ccccc21
IC50 [3]: 14 nM
IC50 [4]: 998 nM

SMILES: Cc1nc2ccc(NC(=O)Nc3ccnc4cccnc34)cc2o1
Ki [6]: 1200 nM
Ki [7]: 670 nM

SMILES: CNC(=O)[C@@H](c1ccccc1)N1CCc2cc(OC)c(OC)cc2[C@@H]1CCc1ccc(C(F)(F)F)cc1 [ALMOREXANT]
Ki [8]: 8 nM

SMILES: Cc1cc(C)nc(N2CC[C@@H]3CN(C(=O)c4cc(F)ccc4-n4nccn4)[C@H]3C2)n1
Ki [3]: 18 nM
Ki [4]: 1400 nM

SMILES: Cc1c(S(=O)(=O)Cc2ccc(F)cc2)c2ccccn2c1CC(=O)N(C)Cc1ccc(F)cc1
Ki [9]: 4360 nM
Ki [8]: 5.7 nM

SMILES: CC1(C)OC[C@H](NC(=O)Nc2ccc(Br)cc2Br)[C@H](c2ccccc2)O1
Ki [9]: 1640 nM
Ki [8]: 6 nM

SMILES: CN(Cc1ccc(F)cc1)C(=O)Cn1cc(S(=O)(=O)Cc2ccc(F)cc2)c2ccccc21
IC50 [3]: 5 nM
IC50 [4]: 4360 nM

SMILES: Cc1ccc(-n2nccn2)c(C(=O)N2C[C@H](COc3ncccc3C)OC[C@H]2C)c1
Ki [4]: 720 nM

SMILES: Cc1c(S(=O)(=O)Cc2ccccc2)c2ccccn2c1CC(=O)N(C)Cc1ccccc1
IC50 [3]: 1 nM
IC50 [4]: 3780 nM

SMILES: CN(Cc1ccc(F)cc1)C(=O)Cc1nc(S(=O)(=O)Cc2ccccc2)c2ccccn12
IC50 [3]: 194 nM
IC50 [4]: > 10000 nM

SMILES: O=C(Cn1cc(S(=O)(=O)Cc2ccc(F)cc2)c2ccccc21)NCc1ccc(F)cc1
IC50 [3]: 96 nM
IC50 [4]: 9190 nM

SMILES: CCCOc1ccc(C)nc1C(=O)N1C[C@@H]2C[C@@H]2C[C@H]1CNc1ncc(C(F)(F)F)cn1
Kb [1]: 0.3 nM
Kb [2]: 63 nM

SMILES: Cc1cc(NC(=O)Nc2ccc(N(C)C)cc2)c2cc(F)cc(F)c2n1
Ki [10]: 320 nM
Ki [11]: 1780 nM
Ki [9]: 22 nM
Ki [8]: 1400 nM

SMILES: Cc1c(S(=O)(=O)Cc2ccccc2)c2ccccn2c1CC(=O)N(C)Cc1ccc(F)cc1
IC50 [3]: 0.8 nM
IC50 [4]: 2380 nM

SMILES: CCN(CC)c1ccc(NC(=O)c2oc3ccccc3c2C)cc1
Ki [9]: 36 nM
Ki [8]: > 10000 nM

SMILES: COc1ccc(C[C@H]2c3cc(OC)c(OC)cc3CCN2[C@@H](C(=O)NC(C)C)c2ccccc2)cc1OC
IC50 [9]: 6 nM

SMILES: CN(Cc1ccccc1)C(=O)Cn1cc(S(=O)(=O)Cc2ccccc2)c2ccccc21
IC50 [3]: 35 nM
IC50 [4]: 3460 nM

SMILES: CN(C)c1ccc(NC(=O)Nc2ccnc3c(F)ccc(F)c23)cc1
Ki [9]: 8.7 nM
Ki [8]: 503 nM

SMILES: CCn1nc(C)cc1C(=O)NCC[C@H](Cc1ccccc1)N(C)C(=O)c1cc(C)ccc1-n1nccn1
Kd [9]: 3050 nM
Kd [8]: 7 nM

Now from value to molecule:

Kb [1]: 158 nM
Kb [2]: 158 nM
SMILES: Cc1nc(C(=O)N2CC3(CC3)C[C@H]2CNc2ncc(Cl)cn2)c(-c2ccccc2)s1

Ki [5]: 320 nM
Kb [1]: 1.6 nM
Kb [2]: 126 nM
SMILES: COc1c(F)cccc1C(=O)N1C[C@@H](C)CC[C@H]1CNc1ccc(Br)cn1 (racemic)

Kb [1]: 31.6 nM
Kb [2]: 2.5 nM
SMILES: Cc1cc(C)nc(NC[C@@H]2CC3(CC3)CN2C(=O)c2nc(C)sc2-c2ccccc2)n1

Kb [1]: 0.8 nM
Kb [2]: 100 nM
SMILES: CCOc1ccc(C)nc1C(=O)N1C[C@@H]2C[C@@H]2C[C@H]1CNc1ncc(C)cn1

Kb [1]: 0.6 nM
Kb [2]: 0.4 nM
SMILES: Cc1cnn(-c2ccc(C)nc2C(=O)N2C[C@@H]3C[C@@H]3C[C@H]2CNc2ncc(C(F)(F)F)cn2)c1

Ki [9]: 1 nM
SMILES: Cc1ccc(-n2nccn2)c(C(=O)N2CCC[C@@H](COc3ccccn3)[C@@H]2C)c1

Ki [9]: 0.3 nM
SMILES: Cc1nc(C(=O)N2CCCC[C@H]2CNC(=O)c2cccc3occc23)c(-c2ccc(F)cc2)s1 [SB-649868]

Ki [4]: 2.2 nM
SMILES: Cc1ccc(-n2nccn2)c(C(=O)N2C[C@H](COc3nccc4ccccc34)OC[C@H]2C)c1

Ki [9]: 1.1 nM
Ki [8]: 129 nM
SMILES: Cc1nc(C(=O)N2CCC[C@H]2Cc2nnc(-c3ccccc3)o2)c(-c2ccccc2F)s1

Ki [8]: 0.3 nM
SMILES: Cc1ccc(-c2ncccn2)c(C(=O)N2C[C@H](COc3ccc(F)cn3)CC[C@H]2C)c1 [FILOREXANT]

Kb [1]: 0.3 nM
SMILES: CCOc1ccc(C)nc1C(=O)N1C[C@@H]2C[C@@H]2C[C@H]1CNc1ncc(C(F)(F)F)cn1

IC50 [3]: 13 nM
IC50 [4]: 3100 nM
SMILES: Cc1cccc(-c2sc(C)nc2C(=O)N2CCC2CNC(=O)c2cccc3c2OCCN3C)c1 (racemic)

Kb [1]: 5 nM
Kb [2]: 79.4 nM
SMILES: Cc1nc(C(=O)N2CC3(CC3)C[C@H]2CNc2ccc(Cl)cn2)c(-c2ccccc2)s1

IC50 [3]: 5 nM
IC50 [4]: 10 nM
SMILES: Cc1cccc(-c2sc(C)nc2C(=O)N2CCC2CNC(=O)c2c(N)nc3sccn23)c1 (racemic)

Kb [1]: 0.5 nM
Kb [2]: 4 nM
SMILES: Cc1ccc(NC[C@@H]2C[C@H]3C[C@H]3CN2C(=O)c2nc(C)ccc2OCC2CC2)nc1

Kb [1]: 1 nM
Kb [2]: 1.3 nM
SMILES: CCCOc1ccc(C)nc1C(=O)N1C[C@@H]2C[C@@H]2C[C@H]1CNc1cnc(C)c(C)n1

Kb [1]: 0.6 nM
Kb [2]: 16 nM
SMILES: Cc1ccc(-c2ncccc2C)c(C(=O)N2C[C@@H]3C[C@@H]3C[C@H]2CNc2ncc(C(F)(F)F)cn2)n1

Ki [9]: 1.1 nM
Ki [8]: 129 nM
SMILES: [3H]c1cccc([3H])c1-c1nnc(C[C@@H]2CCCN2C(=O)c2nc(C)sc2-c2ccccc2F)o1

Ki [9]: 0.5 nM
SMILES: Cc1ccc(-n2nccn2)c(C(=O)N2CCC[C@@H](COc3nccc4ccccc34)[C@@H]2C)c1
